In patent publication US9738933B2, “RNF41 as a biomarker predicting response to lenalidomide in non-del(5q) MDS” (H. LEE MOFFITT CANCER CENTER AND RESEARCH INSTITUTE, INC., priority 2012, dated 2017):

Columns and labels:
[1] = tested on: EpoR; test: EpoR stability in UT-7 cells treated with cycloheximide ± LEN, EpoR immunoblot; type: cell-based; details: cycloheximide + 1 μM LEN, CHX alone 56 h
Method: UT-7 cells (a cell line established from the bone marrow of a patient with acute megakaryoblastic leukemia) were treated with cycloheximide (CHX)±1 μM LEN for 0, 32, 40, 48, 56, 64, and 72 hours. The samples were then separated by SDS-PAGE, and immunoblotted with EpoR antibodies.

[2] = tested on: EpoR; test: EpoR ubiquitination in bortezomib pre-treated UT-7 cells, EpoR immunoprecipitation and ubiquitin immunoblot; type: cell-based; details: bortezomib 20 nM 24 hours, then LEN 0.1, 1, 10 μM, 1 hour
Method: (§1) To investigate the effects of LEN on RNF41 function, protein specific ubiquitination after proteasomal inhibition with bortezomib followed by LEN treatment was investigated. UT-7 cells were pre-treated with bortezomib (20 nM), a proteasome inhibitor, for 24 hours. The cells were subsequently treated with increasing concentrations of LEN (0 μM (control), 0.1 μM, 1 μM, and 10 μM) for 1 hour. The effect of LEN treatment on RNF41 was assessed through immunoprecipitation of RNF41 and immunoblotting for ubiquitin. To verify the observed effects, total protein levels in whole cell lysates were also assessed for RNF41 expression. In order to determine EpoR ubiquitination changes upon LEN treatment, immunoprecipitation of EpoR was carried out followed by immunoblotting for ubiquitin.

[3] = target: T1, RNF41 (Homo sapiens, UniProt Q9H4P4); test: RNF41 auto-ubiquitination in bortezomib pre-treated UT-7 cells, RNF41 immunoprecipitation and ubiquitin immunoblot; type: cell-based; details: bortezomib 20 nM 24 hours, then LEN 0.1, 1, 10 μM, 1 hour
T1 construct: assessed through immunoprecipitation of RNF41 and immunoblotting for ubiquitin; endogenous in cells; host or cells: UT-7
T1 sequence (Q9H4P4 1-317): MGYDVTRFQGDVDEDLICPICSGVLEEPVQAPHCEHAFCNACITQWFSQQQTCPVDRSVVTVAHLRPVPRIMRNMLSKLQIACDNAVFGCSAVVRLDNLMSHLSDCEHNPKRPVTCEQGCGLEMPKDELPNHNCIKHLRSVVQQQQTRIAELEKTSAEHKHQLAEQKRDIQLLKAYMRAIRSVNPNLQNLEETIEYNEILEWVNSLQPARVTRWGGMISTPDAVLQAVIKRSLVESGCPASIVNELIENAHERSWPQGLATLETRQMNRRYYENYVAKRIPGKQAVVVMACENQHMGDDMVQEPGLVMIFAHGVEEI
Method: as §1

[4] = tested on: EpoR; test: LEN-induced EpoR expression in HEK293T cells transfected with EpoR and/or RNF41, immunoblot densitometry; type: cell-based; details: EpoR+pMet7-RNF41 vs EpoR HEK293T cells, LEN 0.1, 1, 10 μM, 1 hour
Method: FIG. 1 is a bar graph plotting the ratio of EpoR/Actin in EpoR and EpoR+pMet7-RNF41 HEK293T cells treated with increasing concentrations of LEN (0 μM (control), 0.1 μM, 1 μM, and 10 μM).
To confirm that RNF41 is the principal target of LEN responsible for EpoR stabilization, HEK293T cells were transfected with EpoR and/or RNF41 expression vectors using the calcium phosphate method. Transfected cells were treated with increasing concentrations of LEN (0 μM (control), 0.1 μM, 1 μM, and 10 μM) for 1 hour, separated by SDS-PAGE, and immunoblotted with EpoR antibodies. Steady state EpoR expression was lower in EpoR/RNF41 cells compared with cells transfected with EpoR alone.

[5] = target: T2, EpoR/RNF41 (Homo sapiens, UniProt Q9H4P4); test: EpoR/RNF41 association in UT-7 cells, EpoR immunoprecipitation and RNF41 immunoblot; type: cell-based; details: LEN 0.1, 1, 10 μM, 1 hour
T2 construct: endogenous in cells; host or cells: UT-7
T2 sequence (Q9H4P4 1-317): T1 sequence (Q9H4P4 1-317)
T2 sequence (P19235 25-508 partner): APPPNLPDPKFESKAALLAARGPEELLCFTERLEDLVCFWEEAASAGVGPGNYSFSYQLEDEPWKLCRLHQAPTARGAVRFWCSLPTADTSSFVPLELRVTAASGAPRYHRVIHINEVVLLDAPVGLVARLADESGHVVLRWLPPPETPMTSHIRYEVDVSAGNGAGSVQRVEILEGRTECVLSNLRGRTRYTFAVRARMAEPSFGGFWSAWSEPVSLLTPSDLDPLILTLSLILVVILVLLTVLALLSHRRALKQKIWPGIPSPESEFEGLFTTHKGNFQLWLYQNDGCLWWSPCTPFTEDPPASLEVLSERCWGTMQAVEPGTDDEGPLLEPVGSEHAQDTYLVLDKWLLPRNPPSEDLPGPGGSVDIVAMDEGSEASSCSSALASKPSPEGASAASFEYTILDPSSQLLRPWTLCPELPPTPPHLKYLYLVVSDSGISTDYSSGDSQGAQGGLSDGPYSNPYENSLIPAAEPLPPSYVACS
Method: To determine if LEN alters EpoR/RNF41 interaction, protein association after LEN treatment was examined. UT-7 cells were treated with increasing concentrations of LEN (0 μM (control), 0.1 μM, 1 μM, and 10 μM) for 1 hour. The cells were then lysed, and the cell lysates were immunoprecipitated for EpoR, and immunoblotted for EpoR and RNF41.

[6] = tested on: JAK2-associated EpoR; details: Basiorka, et al. Blood 2011; cited from earlier work
[7] = tested on: IL3-R; test: IL3-R (Type 1 receptor) expression in UT-7 cells, immunoblot; type: cell-based; details: LEN 0.1, 1, 10 μM, 1 hour
Method: (§2) To examine if the effects of LEN on receptor turnover are restricted to Type 1 cytokine receptors, the effects of LEN on cellular expression of IL3-R (Type 1) and c-Kit (Type 2) were examined. UT-7 cells were treated with increasing concentrations of LEN (0 μM (control), 0.1 μM, 1 μM, and 10 μM) for 1 hour. Samples were separated by SDS-PAGE and immunoblotted with IL3-R (Type 1) and c-Kit (Type 2) antibodies.

[8] = tested on: c-Kit; test: c-Kit (Type 2 receptor) expression in UT-7 cells, immunoblot; type: cell-based; details: LEN 0.1, 1, 10 μM, 1 hour
Method: as §2

[9] = tested on: non-del(5q) MDS; details: MDS patients with non-del(5q); cited from earlier work

Compound: Nc1cccc2c1CN(C1CCC(=O)NC1=O)C2=O (stereo not drawn) [LEN, Lenalidomide]
- cellular EpoR T1/2 [1]: > 72 h
- EpoR ubiquitination [2]: corresponding decrease in EpoR ubiquitination
- RNF41 auto-ubiquitination [3]: inhibited RNF41 auto-ubiquitination in a concentration-dependent fashion
- LEN induced EpoR expression (EpoR/Actin) with RNF41 overexpression [4]: blocked LEN induced EpoR expression by approximately two-fold
- binding of RNF41 to EpoR [5]: Increased binding of RNF41 to EpoR occurs in a concentration-dependent manner
- cellular expression of JAK2-associated EpoR [6]: induces cellular expression of JAK2-associated EpoR in a concentration-dependent manner
- cellular expression of IL3-R [7]: Upregulation of IL3-R occurred in a concentration-dependent manner
- cellular expression of c-Kit [8]: remained unchanged
- patients likely to be responsive to treatment [9]: approximately 26%
